Several values for one entry are separate records, joined by “and”; a condition that tells them apart may be missing. Equal entries are not always repeated.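 Briefly, cells in 96-well plates were exposed to five compound concentrations for 48 h, and endpoints were estimated by linear interpolation. GI50 is the concentration that inhibits growth by half. Definition used: TGI = concentration required for complete inhibition of growth.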
Tests used:
Experiment in all cases: NCI tumour cell line growth inhibition, 48 h
A498 renal = tested on: A498 renal
SK-MEL-2 melanoma = tested on: SK-MEL-2 melanoma
UACC-62 melanoma = tested on: UACC-62 melanoma
HS 578T breast = tested on: HS 578T breast
SF-539 CNS = tested on: SF-539 CNS
NCI/ADR-RES ovarian = tested on: NCI/ADR-RES ovarian
MDA-MB-435 = tested on: MDA-MB-435
A549 NSCLC = tested on: A549 NSCLC
LOX IMVI melanoma = tested on: LOX IMVI melanoma
SN12C renal = tested on: SN12C renal

Row | Compound | GI50 (A498 renal) | TGI (A498 renal) | GI50 (SK-MEL-2 melanoma) | TGI (SK-MEL-2 melanoma) | GI50 (UACC-62 melanoma) | TGI (UACC-62 melanoma) | GI50 (HS 578T breast) | TGI (HS 578T breast) | GI50 (SF-539 CNS) | TGI (SF-539 CNS) | GI50 (NCI/ADR-RES ovarian) | TGI (NCI/ADR-RES ovarian) | GI50 (MDA-MB-435) | TGI (MDA-MB-435) | GI50 (A549 NSCLC) | TGI (A549 NSCLC) | GI50 (LOX IMVI melanoma) | TGI (LOX IMVI melanoma) | GI50 (SN12C renal) | TGI (SN12C renal)
1 | COc1ccc(N=N/C(=N\NC(=O)c2cc(Br)ccc2O)c2ccc(N(CCC#N)CCC#N)cc2OC)cc1 | > 150 µg/mL | > 150 µg/mL | 95.8 µg/mL | > 150 µg/mL | 94.2 µg/mL | > 150 µg/mL | 82.5 µg/mL | > 150 µg/mL | 80.8 µg/mL | > 150 µg/mL | 42 µg/mL | > 150 µg/mL | > 150 µg/mL | > 150 µg/mL | 77.1 µg/mL | > 150 µg/mL | 53.2 µg/mL | > 150 µg/mL | 77.6 µg/mL | > 150 µg/mL
2 | COc1cc(-c2cc(-c3cccs3)c(C#N)c(N3CCOCC3)n2)cc(OC)c1OC | 2.43 µM | > 43.1 µM | 8.46 µM | > 100 µM | 7.57 µM | > 100 µM | 7.27 µM | > 100 µM | 5.06 µM | > 100 µM | 5.08 µM | > 100 µM | > 47.9 µM | > 100 µM | 44.1 µM | > 100 µM | 12 µM | > 100 µM | > 100 µM | > 100 µM
3 | CC(=O)OC1CC2C(C)(C)CCC[C@]2(C)C2=C1C(O)=C(C(C)C)C(=O)C2=O (some centres undefined) | 0.402 µM | 1.79 µM | 0.356 µM | 1.39 µM | 0.323 µM | 1.42 µM | 0.532 µM | > 20.4 µM | 0.723 µM | 3.83 µM | 0.817 µM | 5.13 µM | 0.335 µM | 1.72 µM | 0.521 µM | 3.01 µM | 1.15 µM | 2.95 µM | 0.801 µM | 7.58 µM
4 | COC(=O)CC1C2(C)C3=C(C)C(c4ccoc4)CC3OC2C2OC(=O)C3(C)C=CC(=O)C1(C)C23 (centres undefined) | – | 4.99 µM | – | 3.58 µM | – | 3.79 µM | – | > 96.3 µM | – | 3.03 µM | – | 14.1 µM | – | 2.69 µM | – | 11.4 µM | – | 2.3 µM | – | 2.58 µM
5 | Clc1ccc(-c2nc3c(-c4ccccc4)nc(-c4ccccc4)cn3c2-c2ccc(Cl)cc2)cc1 | > 100 µM | > 100 µM | > 100 µM | > 100 µM | > 100 µM | > 100 µM | > 100 µM | > 100 µM | > 100 µM | > 100 µM | > 100 µM | > 100 µM | > 100 µM | > 100 µM | > 100 µM | > 100 µM | > 100 µM | > 100 µM | > 100 µM | > 100 µM
6 | O=C1Nc2ccc(O)cc2/C1=C\c1ccncc1 | 30.5 µM | 49.9 µM | 14.5 µM | 43.1 µM | 12.2 µM | 26.4 µM | 29.2 µM | 97.3 µM | 6.11 µM | 23.1 µM | 23.7 µM | 60.1 µM | 18.2 µM | 71 µM | 26.2 µM | 82.8 µM | 12 µM | 25.6 µM | 16.2 µM | 44.3 µM
7 | Cc1cncc(-c2nc(NCCc3c[nH]c4ccccc34)c3ncn(C(C)C)c3n2)c1 | 3.4 µM | 16.9 µM | 2.83 µM | 9.8 µM | 3.3 µM | 12.1 µM | 2.64 µM | 9.96 µM | 3.64 µM | 12.4 µM | 3.69 µM | 24 µM | 4.6 µM | 17 µM | 4.28 µM | > 100 µM | 4.61 µM | 15.5 µM | 3.67 µM | 32.4 µM
8 | C=C1C(=O)O[C@@H]2C[C@@H]1CC[C@]1(C)O[C@H]1CC/C(C)=C/CC[C@@]2(C)O | 23.3 µM | 74.5 µM | 64.4 µM | > 100 µM | 17.5 µM | 36.4 µM | 21.7 µM | 68.5 µM | 16.5 µM | 34.5 µM | 20.9 µM | 56.3 µM | 18.3 µM | 41.1 µM | 25.3 µM | 83.7 µM | 0.895 µM | 4.85 µM | 18.6 µM | 41.1 µM
9 | O=C(Nc1ccn(C2CC(I)C(COC(c3ccccc3)(c3ccccc3)c3ccccc3)O2)c(=O)n1)c1ccccc1 (centres undefined) | – | 13 µM | – | – | – | 15.4 µM | – | 21.5 µM | – | 18.4 µM | – | 20.2 µM | – | 15.7 µM | – | 21.5 µM | – | 14.7 µM | – | 12.6 µM
10 | COc1cc(N2CCN(C(C)C)CC2)ccc1Nc1nc(Nc2ccc(F)cc2C(=O)NCC(O)CO)c2cc[nH]c2n1 (centres undefined) | 2.5 µM | > 25 µM | 4.18 µM | > 23.6 µM | 9.87 µM | > 25 µM | 6.9 µM | > 25 µM | 5.13 µM | > 25 µM | > 25 µM | > 25 µM | 4.99 µM | > 25 µM | 5.76 µM | > 25 µM | 1.64 µM | > 25 µM | 7.62 µM | > 25 µM
11 | Cc1ccc(/C=C(/C#N)n2nnc3ncccc32)cc1 | 2.28 µM | 7.51 µM | 2.47 µM | 8.66 µM | 3.2 µM | 15.8 µM | 2.95 µM | > 100 µM | 2.47 µM | 9.61 µM | 1.37 µM | > 100 µM | 0.378 µM | 13.4 µM | 2.58 µM | 77.5 µM | 3.08 µM | 11.3 µM | 2.6 µM | 9.66 µM
12 | Cc1ccc(S(=O)(=O)OCC(=O)Nc2ccc(C(=O)O)c(O)c2)cc1 | 36.4 µM | 105 µM | 50.2 µM | 203 µM | 20.9 µM | 61.4 µM | 20.3 µM | 61.8 µM | 24.7 µM | 72.2 µM | 32.2 µM | 162 µM | 39.9 µM | 169 µM | 199 µM | 503 µM | 20.8 µM | 61 µM | 27.9 µM | 105 µM
13 | CCC(CC)c1cc(N[C@H]2CC[C@H](N)C2)n2nccc2n1 | 2.53 µM | > 100 µM | 1.64 µM | 3.64 µM | 1.45 µM | 3.46 µM | 2.27 µM | 9.44 µM | 1 µM | 5.07 µM | 6.41 µM | > 100 µM | 1.38 µM | 3.76 µM | 0.511 µM | > 100 µM | 0.747 µM | > 100 µM | 0.691 µM | > 100 µM
14 | CON=C1C[C@]2(C[C@@H]3C[C@@H](C/C=C(\C)C[C@@H](C)/C=C/C=C4\CO[C@@H]5[C@H](O)C(C)=C[C@@H](C(=O)O3)[C@]45O)O2)O[C@H](/C(C)=C/C(C)C)[C@H]1C | 10.5 µM | 22.9 µM | 15.4 µM | 32.5 µM | 14.4 µM | 29.6 µM | 16.6 µM | 39.6 µM | 20.4 µM | 36.9 µM | 14.4 µM | 29 µM | 7.98 µM | 21.5 µM | 13.8 µM | 29.1 µM | 13.3 µM | 26.5 µM | 14 µM | 28.3 µM
15 | CC(C)(C)[Si](C)(C)OC1[C@@H](O[Si](C)(C)C(C)(C)C)[C@@H](CNC(=O)NC(=O)NC(=O)CCl)O[C@H]1n1cnc2c(NC(=O)Nc3ccccc3)ncnc21 (some centres undefined) | 6.46 µM | 13.3 µM | 8.62 µM | 17.6 µM | 8.41 µM | 18.6 µM | 4.52 µM | 20.6 µM | 8.82 µM | 16.1 µM | 6.45 µM | 15.9 µM | 6.61 µM | 17.6 µM | 2.26 µM | 8.92 µM | 0.236 µM | 0.52 µM | 3.69 µM | 10.6 µM
16 | C[C@@H]1CC[C@H]2[C@@H](C)C(OC/C=C/COC3O[C@@H]4O[C@@]5(C)CC[C@H]6[C@H](C)CC[C@@H]([C@H]3C)[C@@]46OO5)O[C@@H]3O[C@@]4(C)CC[C@@H]1[C@]32OO4 (some centres undefined) | 15.7 µM | > 100 µM | 0.773 µM | > 100 µM | 0.0363 µM | > 100 µM | 0.0311 µM | > 74.9 µM | – | – | 0.0887 µM | 14.8 µM | 0.0161 µM | 25.1 µM | < 0.0161 µM | > 68.3 µM | < 0.01 µM | 11.4 µM | < 0.0147 µM | 2.06 µM
17 | NC(CP(=O)(O)O)C(=O)O (centres undefined) | – | > 100 µM | – | > 100 µM | – | > 100 µM | – | > 100 µM | – | – | – | > 100 µM | – | > 100 µM | – | > 100 µM | – | > 100 µM | – | > 100 µM
18 | COC(=O)[C@H](Cc1ccccc1)NNC(=O)c1csc([C@@H](C[C@H](C(C)C)N(C)C(=O)[C@@H](NC(=O)[C@H]2CCCCN2C)C2CC2)OC(C)=O)n1 | – | – | 0.035 µM and 0.0932 µM | > 100 µM | 0.0176 µM and 0.0025 µM | 25 µM | – | > 100 µM | 0.00648 µM and 0.0315 µM | 0.0564 µM and 0.461 µM | 15.7 µM and 11 µM | 25 µM and > 100 µM | 0.00165 µM and 0.0151 µM | – | – | 25 µM and > 100 µM | – | 25 µM and > 100 µM | – | 25 µM and > 100 µM
